# Test results reported in US20250129104A1, “7H-PYRROLO[2,3-D]PYRIMIDINES AND PREPARATION AND USES THEREOF” (BioSplice Therapeutics, Inc., priority 2021, published 2025).
# pEC50: −log10 of the molar value.
# Legend:
# [1] = tested on: Tau phosphorylation at Thr212 (pThr212); test: tau phosphorylation assay: phosphoTau (Thr212) AlphaLISA in HEK293T cells transfected with DYRK1A and MAPT; assay type: cell-based; conditions: HEK-293T; HEK293T cells transfected with human DYRK1A and MAPT; 18-24 h compound treatment; read-out: pTau (Thr212) EC50
# Experimental: Representative compounds were screened using the assay procedure for tau phosphorylation activity described below.
# HEK293T cells (ATCC, CRL3216) cultured in DMEM (Thermo Fisher Scientific, 10566024) supplemented with 10% FBS (Corning, 35-011-CV) and Penicillin/Streptomycin (Thermo Fisher Scientific, 15140163) were seeded in a 75 cm^2 flask at 8.1×10^6 cells/flask. The HEK293T cells were then transiently transfected with 5 μg DYRK1A (NM_001396) human untagged clone (OriGene, SC314641) and 2.5 μg MAPT (441 a.a. Tau gene) (NM_005910) human untagged clone (OriGene, TP313312) using Lipofectamine 3000 (Thermo Fisher Scientific, L30000015) and incubated for 20-30 hours in a humidified incubator at 37° C. and 5% CO2. Post-incubation, HEK293T cells transfected with the DYRK1A and MAPT expression vectors were harvested and seeded in BioCoat poly-D lysine coated 96-well plates (Corning, 354461) at 3×10^4 cells/well.
# The above synthesized compounds were screened using the cell assay procedure to assess decreased Tau phosphorylation at Thr212 (pThr212) described below.
# Each compound was dissolved in DMSO (Sigma-Aldrich, D8418-100 mL) as a 10 mM stock. 10 mM stocks were serially diluted 1:3, 10-point dose-response curve and added to the cells with a final concentration ranging from 20 μM to 1.1 nM. Cell were treated with compounds in duplicate and incubated for 18-24 hours in a humidified incubator at 37° C. and 5% CO2.
# Following the overnight compound treatment, cells were lysed with 1× Alpha Surefire Ultra Lysis Buffer (Perkin Elmer, ALSU-LB-100ML) complemented with 1× Halt Phosphatase Inhibitor Cocktail (Thermo Fisher Scientific, 78427) and 1× Halt Protease Inhibitor Cocktail (Thermo Fisher Scientific, 78438). Lysates were spun down at 12,000 g for 10 min to remove any cellular debris and 5 μL of lysates were dispensed into a 384-well Opti-Plate (Perkin Elmer, 6007290) for the measurement of Tau phosphorylation in the phosphoTau (Thr212) AlphaLISA assay. Donor antibody, biotinylated HT7Tau (Thermo Fisher Scientific, MN1000B), and acceptor antibody, pThr212Tau (Thermo Fisher Scientific, 44740G) were both added to the cell lysates at a final concentration of 3 nM and incubated for 1 hour at room temperature. Following incubation of the lysates with the donor and acceptor antibodies, anti-rabbit IgG (Fc specific) AlphaLISA acceptor beads (Perkin Elmer, AL104C) were added at a 10 μg/mL final concentration and incubated for 1 hour at room temperature protected from light. Lastly, AlphaScreen streptavidin donor beads (PerkinElmer, 6760002) were added at 40 μg/mL final concentration and incubated for 1 hour at room temperature protected from light. Plates were read at […], and Em=615 nm on the EnVision Multilabel Plate Reader (Perkin Elmer). PhosphoTau (Thr212) AlphaLISA signal was used to plot, draw the curve fitting, and determine each compound's EC50 in Prism (GraphPad).
# [2] = biological target: recombinant DYRK1A kinase (Homo sapiens (Human), UniProt Q13627); test: DYRK1A kinase assay (Ser/Thr 18 peptide Z-lyte FRET assay); assay type: biochemical; conditions: DYRK1A kinase activity; 15 μM ATP, 1 h room temperature; method text calls the value IC50
# Procedure, shortened: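 FRET Z-lyte read-out (coumarin/fluorescein ratio, % phosphorylation) after 1 h development; IC50 from non-linear curve fit. Reaction: 0.25 μg/mL recombinant human DYRK1A, Ser/Thr 18 peptide 4 μM, ATP 15 μM, compound in 11-point 1:3 series from 10 μM, 1 h, room temperature, duplicate wells.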
Molecule,pEC50 [1],pEC50 [2]
"Cc1nc2ccc(-c3c[nH]c4nc(NCC(C)(C)F)ncc34)cc2s1 [Compound 24, N-(2-Fluoro-2-methylpropyl)-5-(2-methylbenzo[d]thiazol-6-yl)-7H-pyrrolo [2,3-d]pyrimidin-2-amine]",6.44,7.84
"c1cn2cc(-c3c[nH]c4nc(C5CCC5)ncc34)ccc2n1 [Compound 103, 2-cyclobutyl-5-(imidazo[1,2-a]pyridin-6-yl)-7H-pyrrolo[2,3-d]pyrimidine]",5.35,7.66
"CC(C)(C)CNc1ncc2c(-c3ccc4nccn4c3)c[nH]c2n1 [Compound 110, 5-(Imidazo[1,2-a]pyridin-6-yl)-N-neopentyl-7H-pyrrolo[2,3-d]pyrimidin-2-amine]",7.66,7.44
"C[C@H](Nc1ncc2c(-c3ccc4nccn4c3)c[nH]c2n1)C(F)(F)F [Compound 116, (S)-5-(Imidazo[1,2-a]pyridin-6-yl)-N-(1,1,1-trifluoropropan-2-yl)-7H-pyrrolo [2,3-d]pyrimidin-2-amine]",6.93,8.02
"CC[C@H](C)Nc1ncc2c(-c3ccc4ncc(F)n4c3)c[nH]c2n1 [Compound 154, (S)—N-(sec-Butyl)-5-(3-fluoroimidazo[1,2-a]pyridin-6-yl)-7H-pyrrolo[2,3-d]pyrimidin-2-amine]",6.32,7.59
"CC(C)(F)CNc1ncc2c(-c3ccc4ncc(F)n4c3)c[nH]c2n1 [Compound 155, N-(2-Fluoro-2-methylpropyl)-5-(3-fluoroimidazo[1,2-a]pyridin-6-yl)-7H-pyrrolo[2,3-d]pyrimidin-2-amine]",6.64,7.93
"COC[C@H](C)Nc1ncc2c(-c3ccc4ncc(F)n4c3)c[nH]c2n1 [Compound 161, (S)-5-(3-Fluoroimidazo[1,2-a]pyridin-6-yl)-N-(1-methoxypropan-2-yl)-7H-pyrrolo[2,3-d]pyrimidin-2-amine]",6.44,7.58
"COc1nc(CC(C)C)nc2[nH]cc(-c3cc(F)c4nccn4c3)c12 [Compound 187, 5-(8-Fluoroimidazo[1,2-a]pyridin-6-yl)-2-isobutyl-4-methoxy-7H-pyrrolo [2,3-d]pyrimidine]",6.12,7.69
"Fc1cc(-c2c[nH]c3nc(C4CC4)ncc23)cn2ccnc12 [Compound 189, 2-Cyclopropyl-5-(8-fluoroimidazo[1,2-a]pyridin-6-yl)-7H-pyrrolo[2,3-d]pyrimidine]",5.78,7.62
"CC[C@H](C)Nc1ncc2c(-c3cc(F)c4nccn4c3)c[nH]c2n1 [Compound 198, (S)—N-(sec-Butyl)-5-(8-fluoroimidazo[1,2-a]pyridin-6-yl)-7H-pyrrolo[2,3-d]pyrimidin-2-amine]",6.45,7.71
"CC(C)(F)CNc1ncc2c(-c3cc(F)c4nccn4c3)c[nH]c2n1 [Compound 199, N-(2-Fluoro-2-methylpropyl)-5-(8-fluoroimidazo[1,2-a]pyridin-6-yl)-7H-pyrrolo[2,3-d]pyrimidin-2-amine]",7.31,7.81
"Cc1cnc2c(F)cc(-c3c[nH]c4nc(C5CC5)ncc34)cn12 [Compound 276, 2-Cyclopropyl-5-(8-fluoro-3-methylimidazo[1,2-a]pyridin-6-yl)-7H-pyrrolo [2,3-d]pyrimidine]",6.18,7.55
"CC[C@H](C)Nc1ncc2c(-c3cc(F)c4ncc(C)n4c3)c[nH]c2n1 [Compound 285, (S)—N-(sec-Butyl)-5-(8-fluoro-3-methylimidazo[1,2-a]pyridin-6-yl)-7H-pyrrolo[2,3-d]pyrimidin-2-amine]",6.62,7.90
"COC[C@H](C)Nc1ncc2c(-c3cc(F)c4ncc(C)n4c3)c[nH]c2n1 [Compound 292, (S)-5-(8-Fluoro-3-methylimidazo[1,2-a]pyridin-6-yl)-N-(1-methoxypropan-2-yl)-7H-pyrrolo[2,3-d]pyrimidin-2-amine]",6.29,7.77
"N-(4,4-Difluorocyclohexyl)-4-methoxy-5-(pyrazolo[1,5-a]pyrimidin-5-yl)-7H-pyrrolo[2,3-d]pyrimidin-2-amine [Compound 2223]",,8.03
"N-(cis-3-Methoxycyclobutyl)-5-(1-methyl-1H-benzo[d][1,2,3]triazol-6-yl)-7H-pyrrolo[2,3-d]pyrimidin-2-amine [Compound 2051]",,8.11
"cis-4-((4-Ethoxy-5-(pyrazolo[1,5-a]pyrimidin-5-yl)-7H-pyrrolo[2,3-d]pyrimidin-2-yl)amino)cyclohexan-1-ol [Compound 2225]",,7.81

# The next molecules have a higher pEC50 [2] than those just listed; values first:
pEC50 [1],pEC50 [2],Molecule
6.97,8.17,"CN1CCC(Nc2ncc3c(-c4cc5cnccc5s4)c[nH]c3n2)CC1 [Compound 87, N-(1-Methylpiperidin-4-yl)-5-(thieno[3,2-c]pyridin-2-yl)-7H-pyrrolo[2,3-d]pyrimidin-2-amine]"
6.95,8.55,"CC(C)(F)CNc1ncc2c(-c3ccc4nccn4c3)c[nH]c2n1 [Compound 112, N-(2-Fluoro-2-methylpropyl)-5-(imidazo[1,2-a]pyridin-6-yl)-7H-pyrrolo[2,3-d]pyrimidin-2-amine]"
7.52,8.51,"C[C@@H](Nc1ncc2c(-c3ccc4nccn4c3)c[nH]c2n1)C(F)(F)F [Compound 115, (R)-5-(Imidazo[1,2-a]pyridin-6-yl)-N-(1,1,1-trifluoropropan-2-yl)-7H-pyrrolo [2,3-d]pyrimidin-2-amine]"
7.12,8.22,"C[C@@H](Nc1ncc2c(-c3cc(F)c4nccn4c3)c[nH]c2n1)C(F)(F)F [Compound 202, (R)-5-(8-Fluoroimidazo[1,2-a]pyridin-6-yl)-N-(1,1,1-trifluoropropan-2-yl)-7H-pyrrolo[2,3-d]pyrimidin-2-amine]"
6.91,8.28,"COC[C@H](C)Nc1ncc2c(-c3cc(F)c4nccn4c3)c[nH]c2n1 [Compound 205, (S)-5-(8-Fluoroimidazo[1,2-a]pyridin-6-yl)-N-(1-methoxypropan-2-yl)-7H-pyrrolo[2,3-d]pyrimidin-2-amine]"
7.52,8.15,"Fc1cc(-c2c[nH]c3nc(NCC4(F)CC4)ncc23)cn2ccnc12 [Compound 208, N-((1-Fluorocyclopropyl)methyl)-5-(8-fluoroimidazo[1,2-a]pyridin-6-yl)-7H-pyrrolo[2,3-d]pyrimidin-2-amine]"
7.18,8.18,"Cc1cnc2c(F)cc(-c3c[nH]c4nc(NC5CCC(F)(F)CC5)ncc34)cn12 [Compound 301, N-(4,4-Difluorocyclohexyl)-5-(8-fluoro-3-methylimidazo[1,2-a]pyridin-6-yl)-7H-pyrrolo[2,3-d]pyrimidin-2-amine]"
,8.80,"COc1nc(NC2CCC3(CC2)COC3)nc2[nH]cc(-c3ccc4nccnc4c3)c12 [Compound 3590, 4-Methoxy-5-(quinoxalin-6-yl)-N-(2-oxaspiro[3.5]nonan-7-yl)-7H-pyrrolo[2,3-d]pyrimidin-2-amine]"
,9.15,"Cn1nnc2ccc(-c3c[nH]c4nc(N[C@H]5CC[C@@](C)(O)CC5)ncc34)cc21 [Compound 3643, (1s,4s)-1-Methyl-4-((5-(1-methyl-1H-benzo[d][1,2,3]triazol-6-yl)-7H-pyrrolo[2,3-d]pyrimidin-2-yl)amino)cyclohexan-1-ol]"
,8.44,"N-(cis-4-(Methoxy-d3)cyclohexyl)-5-(pyrazolo[1,5-a]pyrimidin-5-yl)-7H-pyrrolo[2,3-d]pyrimidin-2-amine [Compound 2221]"
